Results: patent US10407429B2, “Pyrazolo[1,5-a]triazin-4-amine derivatives useful in therapy” (Curovir AB, priority 2015, dated 2019)

Assays:
Assay type in all cases: cell-based
[1] = test system: coxsackie B1 virus; assay: Antiviral CPE assay in mammalian cell culture; details: read-out: inhibition capacity (IC50) Bl
[2] = test system: coxsackie B3 virus; assay: Antiviral CPE assay in mammalian cell culture; details: Enterovirus B, B3, read-out: inhibition capacity (IC50) B3
[3] = test system: Enterovirus 71; assay: Antiviral CPE assay in mammalian cell culture; details: Enterovirus A, EV71, prevention of viral CPE, read-out: inhibition capacity (IC50) EV71
[4] = test system: coxsackie B5virus; assay: Antiviral CPE assay in mammalian cell culture; details: read-out: inhibition capacity (IC50) B5
[5] = test system: Enterovirus 30; assay: Antiviral CPE assay in mammalian cell culture; details: Enterovirus, read-out: inhibition capacity (IC50) EV30
[6] = test system: polio virus Sabin 1; assay: organism not typed; details: read-out: inhibition capacity (IC50) Polio 1
[7] = test system: Enterovirus 6; assay: Antiviral CPE assay in mammalian cell culture; details: prevention of viral CPE, read-out: inhibition capacity (IC50) EV6
[8] = test system: coxsackie B2 virus; assay: Antiviral CPE assay in mammalian cell culture; details: read-out: inhibition capacity (IC50) B2
[9] = test system: coxsackie B 4 virus; assay: Antiviral CPE assay in mammalian cell culture; details: Enterovirus B, B4, read-out: inhibition capacity (IC50) B4
[10] = test system: Enterovirus 68; assay: Antiviral CPE assay in mammalian cell culture; details: Enterovirus D, EV68, read-out: inhibition capacity (IC50) EV68

| Structure (SMILES) | IC50 [1] [nM] | IC50 [2] [nM] | IC50 [3] [nM] | IC50 [4] [nM] | IC50 [5] [nM] | IC50 [6] [nM] | IC50 [7] [nM] | IC50 [8] [nM] | IC50 [9] [nM] | IC50 [10] [nM] |
| --- | --- | --- | --- | --- | --- | --- | --- | --- | --- | --- |
| COc1ccc(-c2c(C)nn3c(NCc4ccc(F)cc4)nc(C)nc23)cc1OC [Example 1, 8-(3,4-dimethoxyphenyl)-N-[(4-fluorophenyl)methyl]-2,7-dimethyl-pyrazolo[1,5-a][1,3,5]triazin-4-amine] | < 100 | < 1000 | < 10 | < 100 | < 100 | < 10 | < 1000 | < 10 |  |  |
| COc1ccc(-c2c(C)nn3c(NCc4ccc(C(F)(F)F)cc4)nc(C)nc23)cc1OC [Example 2, 8-(3,4-dimethoxyphenyl)-2,7-dimethyl-N-[[4-(trifluoromethyl)phenyl]methyl]pyrazolo[1,5-a][1,3,5]triazin-4-amine] | < 100 | < 1000 | < 1000 | < 100 | < 100 | < 100 | < 1000 | < 100 | < 100 | < 1000 |
| COc1ccc(-c2c(C)nn3c(NCc4ccc(C)cc4)nc(C)nc23)cc1OC [Example 3, 8-(3,4-dimethoxyphenyl)-2,7-dimethyl-N-(p-tolylmethyl)pyrazolo[1,5-a][1,3,5]triazin-4-amine] | < 100 | < 100 | < 100 | < 100 | < 100 | < 100 | < 1000 | < 100 | < 100 | < 100 |
| COc1ccc(-c2c(C)nn3c(NCc4ccc(C(C)C)cc4)nc(C)nc23)cc1OC [Example 4, 8-(3,4-dimethoxyphenyl)-N-[(4-isopropylphenyl)methyl]-2,7-dimethyl-pyrazolo[1,5-a][1,3,5]triazin-4-amine] | < 1000 | < 1000 | < 1000 | < 1000 | < 1000 | < 1000 | < 1000 | < 1000 | < 1000 | < 1000 |
| COc1ccc(-c2c(C)nn3c(NCc4ccccn4)nc(C)nc23)cc1OC [Example 5, 8-(3,4-dimethoxyphenyl)-2,7-dimethyl-N-(2-pyridylmethyl)pyrazolo[1,5-a][1,3,5]triazin-4-amine] | < 100 | < 1000 | < 1000 | < 1000 | < 1000 | < 100 | < 1000 | < 100 | < 1000 | < 1000 |
| COc1ccc(-c2c(C)nn3c(NCCc4ccc(Cl)cc4)nc(C)nc23)cc1OC [Example 7, N-[2-(4-chlorophenyl)ethyl]-8-(3,4-dimethoxyphenyl)-2,7-dimethyl-pyrazolo[1,5-a][1,3,5]triazin-4-amine] | < 1000 | < 1000 | < 1000 | < 1000 | < 1000 | < 1000 | < 1000 | < 1000 | < 1000 | < 1000 |
| COc1ccc(-c2c(C)nn3c(NCc4ccc(Cl)cc4)nc(C)nc23)cc1OC [Example 8, N-[(4-chlorophenyl)methyl]-8-(3,4-dimethoxyphenyl)-2,7-dimethyl-pyrazolo[1,5-a][1,3,5]triazin-4-amine] | < 100 | < 100 | < 1000 | < 1000 | < 100 | < 100 | < 1000 | < 100 | < 100 | < 100 |
| COc1ccc(-c2c(C)nn3c(NCc4ccc(NC(C)=O)cc4)nc(C)nc23)cc1OC [Example 9, N-[4-[[[8-(3,4-dimethoxyphenyl)-2,7-dimethyl-pyrazolo[1,5-a][1,3,5]triazin-4-yl]amino]methyl]phenyl]acetamide] | < 1000 | < 100 | < 100 | < 100 | < 100 | < 10 | < 100 | < 100 | < 100 | < 100 |
| COc1ccc(CNc2nc(C)nc3c(-c4ccc(OC)c(OC)c4)c(C)nn23)cc1 [Example 10, 8-(3,4-dimethoxyphenyl)-N-[(4-methoxyphenyl)methyl]-2,7-dimethyl-pyrazolo[1,5-a][1,3,5]triazin-4-amine] | < 100 | < 1000 | < 1000 | < 100 | < 100 | < 100 | < 1000 | < 100 | < 100 | < 100 |
| COc1ccc(-c2c(C)nn3c(NCc4cccc(S(C)(=O)=O)c4)nc(C)nc23)cc1OC [Example 11, 8-(3,4-dimethoxyphenyl)-2,7-dimethyl-N-[(3-methylsulfonylphenyl)methyl]pyrazolo[1,5-a][1,3,5]triazin-4-amine] | < 10 | < 10 | < 100 | < 10 | < 10 | < 10 | < 100 | < 10 | < 10 | < 100 |
| COc1ccc(-c2c(C)nn3c(NCc4cc[n+]([O-])cc4)nc(C)nc23)cc1OC [Example 12, 8-(3,4-dimethoxyphenyl)-2,7-dimethyl-N-[(1-oxidopyridin-1-ium-4-yl)methyl]pyrazolo[1,5-a][1,3,5]triazin-4-amine] | < 1000 | < 1000 | < 1000 | < 1000 | < 1000 | < 1000 |  | < 1000 | < 1000 | < 1000 |
| COc1ccc(CNc2nc(C)nc3c(-c4ccc(OC)c(OC)c4)c(C)nn23)cn1 [Example 13, 8-(3,4-dimethoxyphenyl)-N-[(6-methoxy-3-pyridyl)methyl]-2,7-dimethyl-pyrazolo[1,5-a][1,3,5]triazin-4-amine] | < 10 | < 100 | < 100 | < 100 | < 10 | < 10 |  | < 100 | < 100 | < 100 |
| COc1ccc(-c2c(C)nn3c(NCC4CCCCC4)nc(C)nc23)cc1OC [Example 15, N-(cyclohexylmethyl)-8-(3,4-dimethoxyphenyl)-2,7-dimethyl-pyrazolo[1,5-a][1,3,5]triazin-4-amine] | < 1000 | < 1000 | < 1000 | < 1000 | < 1000 | < 1000 | < 1000 | < 1000 | < 1000 | < 1000 |
| COc1ccc(-c2c(C)nn3c(NCc4ccc5c(c4)OCO5)nc(C)nc23)cc1OC [Example 16, N-(1,3-benzodioxol-5-ylmethyl)-8-(3,4-dimethoxyphenyl)-2,7-dimethyl-pyrazolo[1,5-a][1,3,5]triazin-4-amine] | < 100 | < 100 | < 100 | < 100 | < 100 | < 100 | < 1000 | < 100 | < 10 | < 100 |
| COc1ccc(-c2c(C)nn3c(NCc4ccc(O)cc4)nc(C)nc23)cc1OC [Example 17, 4-[[[8-(3,4-dimethoxyphenyl)-2,7-dimethyl-pyrazolo[1,5-a][1,3,5]triazin-4-yl]amino]methyl]phenol] | < 10 | < 100 | < 10 | < 10 | < 100 | < 10 | < 100 | < 10 | < 100 | < 100 |
| COc1ccc(-c2c(C)nn3c(NCC4CCCO4)nc(C)nc23)cc1OC (stereo not drawn) [Example 18, 8-(3,4-dimethoxyphenyl)-2,7-dimethyl-N-(tetrahydrofuran-2-ylmethyl)pyrazolo[1,5-a][1,3,5]triazin-4-amine] | < 1000 | < 1000 | < 1000 | < 1000 | < 1000 | < 1000 | < 1000 | < 1000 | < 1000 | < 1000 |
| COc1ccc(-c2c(C)nn3c(NCc4ccc(NS(C)(=O)=O)cc4)nc(C)nc23)cc1OC [Example 19, N-[4-[[[8-(3,4-dimethoxyphenyl)-2,7-dimethyl-pyrazolo[1,5-a][1,3,5]triazin-4-yl]amino]methyl]phenyl]methanesulfonamide] | < 100 | < 100 | < 10 | < 1000 | < 100 | < 100 | < 1000 | < 100 | < 10 | < 100 |
| COc1ccc(-c2c(C)nn3c(NCc4ccccc4)nc(C)nc23)cc1OC [Example 20, N-benzyl-8-(3,4-dimethoxyphenyl)-2,7-dimethyl-pyrazolo[1,5-a][1,3,5]triazin-4-amine] | < 100 | < 100 | < 100 | < 100 | < 100 | < 100 | < 100 | < 100 | < 10 | < 100 |
| COc1ccc(-c2c(C)nn3c(NCc4cccs4)nc(C)nc23)cc1OC [Example 21, 8-(3,4-dimethoxyphenyl)-2,7-dimethyl-N-(2-thienylmethyl)pyrazolo[1,5-a][1,3,5]triazin-4-amine] | < 10 | < 100 | < 100 | < 100 | < 100 | < 100 | < 100 | < 10 | < 100 | < 100 |
